# Measurements published in US20160297768A1, “NOVEL IMIDAZOLE DERIVATIVES AND THERAPEUTIC USE THEREOF” (INDUSTRY-ACA-DEMIC COORPERATION FOUNDATION, YONSEI …, priority 2013, published 2016).
# What was measured:
# A549 cells = assay: Apoptotic activity by MTT analysis, A549 cells; type: cell-based; conditions: Homo sapiens, A549, 12 h, 15 μM of the compound, mean±standard deviation, read-out: Apoptosis (%) A549 cells
# Description: (§1) Lung cancer cells (A549), colorectal cancer cells (HCT116), HeLa cells, liver cancer cells (HepG2), T-cell leukemia cells (Jurkat), myeloid leukemia cells (K562), breast cancer cells (MCF-7 and MDA-MB-231) and myelocytic leukemia cells ([…]) were obtained from the American Type Culture Collection (ATCC), and cultured in 10% fetal bovine serum (FBS), 50 units/mL penicillin and 50 units/mL streptomycin-added RPMI 1640 (Invitrogen). The cells were maintained in a humidified 37° C., 5% CO2 atmosphere. The anticancer activity was detected by MTT analysis. Each type of cancer cells were plated in triplicate in a 96-well microtiter plate, and cultured at 37° C. for 24 hours. The cells were treated with each of the compounds prepared above at 37° C. for 12 hours. After the culturing of the cells, 10 μL of an MTT reagent ((3-[4,5-dimethyl-2-thiazolyl]-2,5-diphenyl-2H-tetrazoliumbromide) was added to each well, and cultured for 3.5 hours. The absorbance of each sample was detected using a UV microplate reader (SpectraMax 340PC 384, Molecular Devices) at 570 nm. The detection results were measured as a mean value. The effect of each compound on apoptosis is shown in Table 1.
# (§2) The A549 and HeLa cells were treated with 15 μM of the compound for 12 hours. The apoptosis was detected using MTT (mean±standard deviation).
# HeLa cells = assay: Apoptotic activity by MTT analysis, HeLa cells; type: cell-based; conditions: Homo sapiens, HeLa, 12 h, 15 μM of the compound, mean±standard deviation, read-out: Apoptosis (%) HeLa cells
# Description: as §1, §2
SMILES,cytotoxicity at 15 µM (A549 cells) [%],cytotoxicity at 15 µM (HeLa cells) [%]
"COC(=O)c1ccc(Cn2c(-c3cc(C(F)(F)F)cc(C(F)(F)F)c3)nc(-c3ccc(OC)cc3)c2-c2ccc(OC)cc2)cc1 [Example 120, Methyl4-((2-(3,5-bis(trifluoromethyl)phenyl)-4,5-bis(4-methoxyphenyl)-1H-imidazole-1-yl)methyl)benzoate]",40 ± 0.49,53 ± 1.84
"COCCNC(=O)c1ccc(Cn2c(-c3cc(C(F)(F)F)cc(C(F)(F)F)c3)nc(-c3ccc(OC)cc3)c2-c2ccc(OC)cc2)cc1 [Example 121, 4-((2-(3,5-bis(trifluoromethyl)phenyl)-4,5-bis(4-methoxyphenyl)-1H-imidazole-1-yl)methyl)-N-(2-methoxyethyl)benzamide]",13 ± 0.38,19 ± 1.06
"COCCOC(=O)c1ccc(Cn2c(-c3cc(C(F)(F)F)cc(C(F)(F)F)c3)nc(-c3ccc(OC)cc3)c2-c2ccc(OC)cc2)cc1 [Example 122, 2-methoxyethyl 4-((2-(3,5-bis(trifluoromethyl)phenyl)-4,5-bis(4-methoxyphenyl)-1H-imidazole-1-yl)methyl)benzoate]",58 ± 0.28,57 ± 0.77
"NCCOCCOCCNC(=O)c1ccc(Cn2c(-c3cc(C(F)(F)F)cc(C(F)(F)F)c3)nc(-c3ccccc3Cl)c2-c2ccccc2Cl)cc1 [Example 123, N-(2-(2-(2-aminoethoxy)ethoxy)ethyl)-4-((2-(3,5-bis(trifluoromethyl)phenyl)-4,5-bis(2-chlorophenyl)-1H-imidazole-1-yl)methyl)benzamide]",11 ± 0.7,8 ± 0.76
"NCCOCCOCCNC(=O)c1ccc(Cn2c(-c3ccc(C(F)(F)F)cc3)nc(-c3ccccc3)c2-c2ccccc2)cc1 [Example 128, N-(2-(2-(2-aminoethoxy)ethoxy)ethyl)-4-((4,5-diphenyl-2-(4-(trifluoromethyl)phenyl)-1H-imidazole-1-yl)methyl)benzamide]",77 ± 0.76,78 ± 1.61
"N=C(N)c1ccc(Cn2c(-c3cc(C(F)(F)F)cc(C(F)(F)F)c3)nc(-c3ccc(Br)cc3)c2-c2ccc(Br)cc2)cc1 [Example 181, 4-((2-(3,5-bis(trifluoromethyl)phenyl)-4,5-bis(4-bromophenyl)-1H-imidazole-1-yl)methyl)benzimidamide]",93 ± 0.59,94 ± 1.26
"COc1cccc(-c2nc(-c3cc(C(F)(F)F)cc(C(F)(F)F)c3)n(Cc3ccc(C(=N)N)cc3)c2-c2cccc(OC)c2)c1 [Example 182, 4-((2-(3,5-bis(trifluoromethyl)phenyl)-4,5-bis(3-methoxyphenyl)-1H-imidazole-1-yl)methyl)benzimidamide]",49 ± 0.82,49 ± 0.48
"Cc1ccc(-c2nc(-c3cc(C(F)(F)F)cc(C(F)(F)F)c3)n(Cc3ccc(C(=N)N)cc3)c2-c2ccc(C)cc2)cc1 [Example 183, 4-((2-(3,5-bis(trifluoromethyl)phenyl)-4,5-ditolyl-1H-imidazole-1-yl)methyl)benzimidamide]",56 ± 1.07,56 ± 0.38
"N=C(N)c1ccc(Cn2c(-c3cc(C(F)(F)F)cc(C(F)(F)F)c3)nc(-c3ccccc3)c2-c2ccccc2)cc1 [Example 184, 4-((2-(3,5-bis(trifluoromethyl)phenyl)-4,5-diphenyl-1H-imidazole-1-yl)methyl)benzimidamide]",79 ± 0.77,79 ± 0.46
"COc1ccc(-c2nc(-c3ccc4c(c3)-c3ccccc3C4)n(Cc3ccc(C(=N)N)cc3)c2-c2ccc(OC)cc2)cc1 [Example 185, 4-((2-(9H-fluorene-3-yl)-4,5-bis(4-methoxyphenyl)-1H-imidazole-1-yl)methyl)benzimidamide]",42 ± 1.15,42 ± 0.38
"COc1ccc(-c2nc(-c3cc(C(F)(F)F)cc(C(F)(F)F)c3)n(Cc3ccc(/C(N)=N/O)cc3)c2-c2ccc(OC)cc2)cc1 [Example 186, 4-((2-(3,5-bis(trifluoromethyl)phenyl)-4,5-bis(4-methoxyphenyl)-1H-imidazole-1-yl)methyl)-N′-hydroxybenzimidamide]",5 ± 0.38,5 ± 0.27
